The term IC50 denotes the concentration that gives 50% inhibition. Low values mean inhibition by little substance, high ones a need for much substance.

One assay deals with hepatic lipase (HL) (Homo sapiens (Human), UniProt P11150). The experiment in a line: HL assay: hepatic lipase activity with fluorescent substrate A10070 in DMPG vesicles. The assay is classed as biochemical. In short, it runs like this:
(§1)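 EL from conditioned medium of HT-1080 cells engineered to overexpress endogenous EL; HL partially purified from conditioned medium of HL-overexpressing COS cells. Enzyme preincubated with compound 30 min at 37° C in 50 mM HEPES pH 8.0, 50 mM NaCl, 1 mM CaCl2; DMPG vesicles carrying FRET substrate (0.11 mole fraction) then added.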

The target of a further assay is Endothelial lipase (EL) (Homo sapiens (Human), UniProt Q9Y5X9). The experiment in a line: EL assay: endothelial lipase activity with fluorescent substrate A10070 in DMPG vesicles. The assay is classed as biochemical. The method in brief: as §1
Chain of Endothelial lipase (EL) (Q9Y5X9 21-500): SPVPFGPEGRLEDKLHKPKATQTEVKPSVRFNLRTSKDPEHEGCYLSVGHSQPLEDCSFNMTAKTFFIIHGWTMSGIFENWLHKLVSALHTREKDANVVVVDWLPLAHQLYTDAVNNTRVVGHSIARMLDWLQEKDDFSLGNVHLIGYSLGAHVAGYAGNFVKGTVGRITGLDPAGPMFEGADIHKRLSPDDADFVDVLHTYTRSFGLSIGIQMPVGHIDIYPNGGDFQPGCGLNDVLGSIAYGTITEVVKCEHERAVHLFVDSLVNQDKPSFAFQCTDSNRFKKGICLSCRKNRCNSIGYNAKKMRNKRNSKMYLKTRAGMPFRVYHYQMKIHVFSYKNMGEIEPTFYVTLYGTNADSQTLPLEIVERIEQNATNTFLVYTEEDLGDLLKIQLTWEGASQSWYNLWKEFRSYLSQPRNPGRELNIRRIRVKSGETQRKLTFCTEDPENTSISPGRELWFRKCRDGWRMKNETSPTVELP

Chain of hepatic lipase (HL) (P11150 23-499, species assumed): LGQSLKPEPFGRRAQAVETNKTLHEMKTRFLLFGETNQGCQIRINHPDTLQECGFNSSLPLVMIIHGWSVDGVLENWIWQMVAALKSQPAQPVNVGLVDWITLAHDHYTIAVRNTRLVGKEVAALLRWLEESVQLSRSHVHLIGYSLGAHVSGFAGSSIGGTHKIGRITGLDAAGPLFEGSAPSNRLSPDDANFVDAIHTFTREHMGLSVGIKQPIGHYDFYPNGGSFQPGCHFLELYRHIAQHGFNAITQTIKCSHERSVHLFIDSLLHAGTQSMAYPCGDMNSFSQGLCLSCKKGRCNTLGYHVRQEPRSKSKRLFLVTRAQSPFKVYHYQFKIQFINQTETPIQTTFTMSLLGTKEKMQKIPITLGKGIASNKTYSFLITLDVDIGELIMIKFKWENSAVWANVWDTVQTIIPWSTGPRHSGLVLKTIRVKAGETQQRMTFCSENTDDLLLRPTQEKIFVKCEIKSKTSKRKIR

For the compound `COCCS(=O)(=O)NS(=O)(=O)c1cccc(CNC(=O)C(c2nc3cc(-c4ccccc4)ccc3s2)S(=O)(=O)CCOC)c1` (centres unmarked) [Example B270, N-({3-[(2-methoxyethane-sulfonamido)sulfonyl]phen-yl}methyl)-2-(2-methoxyethanesulfonyl)-2-(5-phenyl-1,3-benzothiazol-2-yl)a-cetamide], the figures for the IC50 against hepatic lipase (HL) and at Endothelial lipase (EL) were 212 nM and 205 nM, respectively.

With `CC(C)S(=O)(=O)C(C(=O)NCCS(N)(=O)=O)c1nc2ccc(-c3cccc(C(=O)N(C)C)c3)cc2s1` (centres unmarked) [Example B272, N,N-dimethyl-3-{2-[(propane-2-sulfonyl)[(2-sul-famoylethyl)carbamoyl]meth-yl]-1,3-benzothiazol-6-yl}benzamide], the results for the IC50 against hepatic lipase (HL) and against Endothelial lipase (EL) were 612 nM and 35.3 nM, respectively.

Take `Cc1cc2nc(C(C(=O)NCCS(N)(=O)=O)S(=O)(=O)Cc3ccccc3)sc2cc1-c1ccc(C(=O)OC(C)(C)C)cc1` (centres unmarked) [Example B273, tert-butyl 4-(5-methyl-2-{phenylmethanesulfonyl[(2-sulfamoylethyl)car-bamoyl]methyl}-1,3-benzothiazol-6-yl)benzoate]: the results for the IC50 on hepatic lipase (HL) and against Endothelial lipase (EL) were 3 nM and 1.4 nM, respectively.

Take `Cc1cc2nc(C(C(=O)NCCS(N)(=O)=O)S(C)(=O)=O)sc2cc1-c1ccc(C(=O)OC(C)(C)C)cc1` (centres unmarked) [Example B274, tert-butyl 4-(2-{methanesulfonyl[(2-sul-famoylethyl)carbamoyl]meth-yl}-5-methyl-1,3-benzothiazol-6-yl)benzoate]: the IC50 on hepatic lipase (HL) worked out at 5.1 nM; at Endothelial lipase (EL) it was 1.7 nM.

Turning to `CS(=O)(=O)C(C(=O)NCc1ccccc1S(N)(=O)=O)c1nc2ccc(-c3ccc(N4CCCCC4)cc3)cc2s1` (centres unmarked) [Example B275, 2-methanesulfonyl-2-{6-[4-(piperidin-1-yl)phenyl]-1,3-benzothiazol-2-yl}-N-[(2-sulfamoylphenyl)meth-yl]acetamide], the values for the half-inhibitory concentration (IC50) against hepatic lipase (HL) and against Endothelial lipase (EL) were 218 nM and 173 nM, respectively.

Regarding `CC(C)(C)OC(=O)c1ccc(-c2ccc3nc(C(C(=O)NCCS(N)(=O)=O)S(=O)(=O)Cc4ccccc4)sc3c2)cc1` (centres unmarked) [Example B276, tert-butyl 4-(2-{phenylmethanesulfonyl[(2-sulfamoylethyl)car-bamoyl]methyl)-1,3-benzothiazol-6-yl)benzoate], the IC50 on hepatic lipase (HL) stood at 0.8 nM; on Endothelial lipase (EL), 1.1 nM.

As to `NS(=O)(=O)c1cccc(CNC(=O)C(c2nc3ccc(-c4ccc(C(=O)N5CCCC5)cc4)cc3s2)S(=O)(=O)Cc2ccccc2)c1` (centres unmarked) [Example B277, 2-phenylmethanesulfonyl-2-{6-[4-(pyrrolidine-1-carbonyl)phenyl]-1,3-benzothiazol-2-yl}-N-[(3-sulfamoylphenyl)methyl]a-cetamide], the IC50 against hepatic lipase (HL) was found to be 84.9 nM; against Endothelial lipase (EL) it was 191 nM.

As for `NS(=O)(=O)c1cccc(CNC(=O)C(c2nc3ccc(-c4ccncc4Cl)cc3s2)S(=O)(=O)Cc2ccccc2)c1` (centres unmarked) [Example B278, 2-[6-(3-chloropyridin-4-yl)-1,3-benzothiazol-2-yl]-2-phenylmethanesulfonyl-N-[(3-sulfamoylphen-yl)methyl]acetamide], the IC50 against hepatic lipase (HL) worked out at 355 nM; against Endothelial lipase (EL) it was 158 nM.

`Cc1nnc(CNC(=O)C(c2nc3ccc(-c4ccc(C(=O)OC(C)(C)C)cc4)cc3s2)S(C)(=O)=O)s1` (centres unmarked) [Example B279, tert-butyl 4-{2-[methanesulfonyl({[(5-methyl-1,3,4-thiadiazol-2-yl)methyl]carbamoyl})meth-yl]-1,3-benzothiazol-6-yl}benzoate]: the half-inhibitory concentration (IC50) at hepatic lipase (HL) was 2.8 nM; against Endothelial lipase (EL) it was 15.6 nM.

Consider `CC(C)S(=O)(=O)C(C(=O)NCCS(N)(=O)=O)c1nc2c(F)cc(-c3cccc(C(=O)OC(C)(C)C)c3)cc2s1` (centres unmarked) [Example B280, tert-butyl 3-{4-fluoro-2-[(propane-2-sulfonyl)[(2-sul-famoylethyl)carbamoyl]meth-yl]-1,3-benzothiazol-6-yl}benzoate], for which the concentration for half-maximal inhibition (IC50) against hepatic lipase (HL) was found to be 2.9 nM; against Endothelial lipase (EL), 4.8 nM.

For the origin of these results see patent US8987314B2, “Amide, urea or sulfone amide linked benzothiazole inhibitors of endothelial lipase” (Bristol-Myers Squibb Company, priority 2012, dated 2015).
